Source: patent publication US12692241B2, “Substituted triazine compound” (Nico Therapeutics, Inc., priority 2021, dated 2026)
Read-outs that look alike come from different tables or passages of the source.

Legend:
[1] = test system: IL-1β production in THP-1 cells (LPS and ATP; NLRP3 inflammasome activation); assay: THP-1 IL-1β production inhibitory test; assay type: cell-based, human; details: PMA-differentiated THP-1 cells, LPS 50 ng/mL and ATP 5 mM, 2 hours, ELISA, read-out: IC50 (nM), IL-1β production
How it was run: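 THP-1 cells were differentiated with 50 ng/mL PMA for 2 days, then held 15 min at 37 °C. Cells were stimulated with 50 ng/mL LPS plus 5 mM ATP for 2 h, and supernatant IL-1β was measured by ELISA. IC50 came from sigmoidal Emax nonlinear regression.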

[2] = test system: TNF-α production in THP-1 cells (LPS); assay: TNF-α production inhibitory test; assay type: cell-based; details: Homo sapiens; PMA-differentiated THP-1 cells, LPS 50 ng/mL, 2 hours, ELISA
Experimental: TNF-α Production Inhibitory Test
To THP-1 cells, 50 ng/mL PMA (phorbol myristate acetate, SIGMA, P1585) was added and then the cells were cultured at 37° C. for 2 days. The culture medium was exchanged with serum-free RPMI-1640 medium, and a compound known in concentration was added. The cells were cultured at 37° C. for 15 minutes. LPS (lipopolysaccharide, SIMGA, L2880) was added such that the final concentrations of them became 50 ng/mL. The cells were cultured at 37° C. for 2 hours. The supernatant was collected and the concentration of TNF-α was measured by ELISA (DuoSet ELISA human TNF-α, R&D Systems, DY201). The concentration of TNF-α was plotted against the logarithm of the concentration of the test compound, and the IC50 value was calculated by sigmoidal Emax model nonlinear regression analysis.

[3] = test system: IL-1β p17 in cerebrospinal fluid; assay: Rat central nervous system IL-1β production test; assay type: in vivo; details: male Wistar rats, oral, LPS and BzATP in cisterna magna
Experimental: Rat Central Nervous System IL-1β Production Test
Male Wistar rats of 10-14 weeks old were administered with 12.5 μg/5 μL LPS (SIGMA, L2880) in the cisterna magna under isoflurane anesthesia. Two hours later, a test compound was orally administered. Further one hour later, 50 μg/5 μL BzATP (2′(3′)—O-(4-benzoylbenzoyl)adenosine 5′-triphosphate triethylammonium salt, SIGMA, B6396) was administered in the cisterna magna. Thirty minutes later, the cerebrospinal fluid was collected. The cerebrospinal fluid was subjected to Western blotting using an anti-IL-1β antibody (Millipore, AB1832P) to measure IL-1β p17, and then, the suppression rate thereof relative to the solvent-administered group was calculated.
In the Table, Dose refers to a dosage amount of each test compound, and Ex59, Ex75, Ex131, Ex132 and Ex164 represent Example 59, Example 75, Example 131, Example 132 and Example 164, respectively. It was confirmed that the compounds have inhibitory effects on IL-1β production.

3T3 NRU phototoxicity = assay: In vitro phototoxicity test (3T3 NRU); assay type: cell-based; details: ICH S10 / OECD 432 in vitro 3T3 NRU phototoxicity test
Source text: In Vitro Phototoxicity Test
The evaluation of in vitro phototoxicity tests was based on ICH S10: Guidelines for Evaluation of Phototoxicity of Drugs (Notification No. 0521-1) and OECD guideline for testing of chemicals 432: In vitro 3T3 NRU phototoxicity test, 2004, which was described in the OECD report.

[4] = target: human Ether-a-go-go Related Gene (hERG) channel (Homo sapiens, UniProt Q12809); assay: Safety pharmacological test: hERG channel inhibitory effect; assay type: biochemical
Chain of human Ether-a-go-go Related Gene (hERG) channel (Q12809 whole entry): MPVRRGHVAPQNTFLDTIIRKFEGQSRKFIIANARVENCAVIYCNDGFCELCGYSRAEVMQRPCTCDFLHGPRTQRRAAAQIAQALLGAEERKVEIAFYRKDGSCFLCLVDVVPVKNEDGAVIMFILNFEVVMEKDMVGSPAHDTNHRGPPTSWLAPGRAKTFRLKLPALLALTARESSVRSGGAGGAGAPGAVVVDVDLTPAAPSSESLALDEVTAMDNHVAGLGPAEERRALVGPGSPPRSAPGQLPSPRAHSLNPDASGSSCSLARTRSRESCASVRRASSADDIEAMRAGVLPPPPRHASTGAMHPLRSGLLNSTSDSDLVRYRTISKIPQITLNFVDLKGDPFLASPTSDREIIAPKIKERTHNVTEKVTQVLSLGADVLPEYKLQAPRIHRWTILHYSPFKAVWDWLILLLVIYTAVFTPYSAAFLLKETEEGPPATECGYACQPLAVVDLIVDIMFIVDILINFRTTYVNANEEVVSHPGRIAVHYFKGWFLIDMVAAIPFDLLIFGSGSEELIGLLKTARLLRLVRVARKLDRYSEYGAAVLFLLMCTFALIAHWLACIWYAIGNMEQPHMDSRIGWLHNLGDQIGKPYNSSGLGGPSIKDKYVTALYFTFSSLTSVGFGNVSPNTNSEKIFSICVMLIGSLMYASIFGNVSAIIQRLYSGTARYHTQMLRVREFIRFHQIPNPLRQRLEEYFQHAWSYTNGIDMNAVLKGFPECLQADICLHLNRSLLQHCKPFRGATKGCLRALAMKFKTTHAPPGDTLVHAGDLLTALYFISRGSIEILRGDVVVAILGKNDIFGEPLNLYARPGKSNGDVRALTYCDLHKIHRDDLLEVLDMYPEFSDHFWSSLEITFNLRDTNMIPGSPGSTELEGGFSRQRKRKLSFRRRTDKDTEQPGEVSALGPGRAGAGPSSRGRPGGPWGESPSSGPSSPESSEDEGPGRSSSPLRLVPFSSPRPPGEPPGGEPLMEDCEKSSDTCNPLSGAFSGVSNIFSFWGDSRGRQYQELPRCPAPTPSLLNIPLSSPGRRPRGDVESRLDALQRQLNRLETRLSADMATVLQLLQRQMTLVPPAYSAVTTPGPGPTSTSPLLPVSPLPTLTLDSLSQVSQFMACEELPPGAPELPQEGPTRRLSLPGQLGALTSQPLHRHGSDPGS
Experimental: Safety Pharmacological Test
As a safety pharmacological test, the human Ether-a-go-go Related Gene (hereinafter referred to as hERG) channel inhibitory effect was evaluated. The hERG channel inhibitory effect was evaluated using a modified method described in Combinatorial Chemistry & High Throughput Screening, 12, 1, 78-95 (2009).

In the case of Cc1nc(N[C@@H]2CCCN(C)C2)nnc1-c1ccc(OC(F)F)cc1O [Example 174, 5-(difluoromethoxy)-2-(5-methyl-3-{[(3R)-1-methylpiperidin-3-yl]amino}-1,2,4-triazin-6-yl)phenol], the IC50 ([1]; Homo sapiens, THP-1, 2 h) is reported as 1.1 nM and the IC50 [2] is reported as ≥ 10 µM.
For Cc1nc(N[C@@H]2CCOC[C@H]2O)nnc1-c1ccc(Cl)cc1O [Example 31, (3S,4R)-4-{[6-(4-chloro-2-hydroxyphenyl)-5-methyl-1,2,4-triazin-3-yl]amino}oxan-3-ol], the IC50 ([1]; Homo sapiens, THP-1, 2 h) was 25 nM and the IC50 [2] was ≥ 10 µM.
For Cc1nc(N[C@@H]2CCCC[C@H]2N)nnc1-c1ccc(C(F)(F)F)cc1O [Ex132], the “suppression rate of IL-1β p17 relative to the solvent-administered group” value ([3]; Dose 0.3 mg/kg) was −3.7%^, the “suppression rate of IL-1β p17 relative to the solvent-administered group” value ([3]; Dose 1 mg/kg) was 88% and the “suppression rate of IL-1β p17 relative to the solvent-administered group” value ([3]; Dose 3 mg/kg) was 88%.
With Cc1nc(N[C@@H]2CCCC[C@H]2O)nnc1-c1ccc(OC(F)(F)F)cc1O [Example 27, 2-(3-{[(1R,2R)-2-hydroxycyclohexyl]amino}-5-methyl-1,2,4-triazin-6-yl)-5-(trifluoromethoxy)phenol] the IC50 ([1]; Homo sapiens, THP-1, 2 h) was 10 nM and the IC50 [2] was ≥ 10 µM.
In the case of CC1(O)CC(Nc2nnc(-c3ccc(C(F)(F)F)cc3O)c(C3CC3)n2)C1 (stereo not drawn) [Example 108, 2-(5-cyclopropyl-3-{[(1s,3s)-3-hydroxy-3-methylcyclobutyl]amino}-1,2,4-triazin-6-yl)-5-(trifluoromethyl)phenol], the IC50 ([1]; Homo sapiens, THP-1, 2 h) is reported as 21 nM and the IC50 [2] is reported as ≥ 10 µM.
With Cc1nc(N[C@@H]2CCCC[C@H]2O)nnc1-c1ccc(OC(F)F)cc1O [Ex131] the “suppression rate of IL-1β p17 relative to the solvent-administered group” value ([3]; Dose 0.3 mg/kg) was −33%, the “suppression rate of IL-1β p17 relative to the solvent-administered group” value ([3]; Dose 1 mg/kg) was −54% and the “suppression rate of IL-1β p17 relative to the solvent-administered group” value ([3]; Dose 3 mg/kg) was 61%.
With COc1ccc(-c2nnc(N[C@@H]3CCCC[C@H]3O)nc2C)c(O)c1 [Ex59] the “suppression rate of IL-1β p17 relative to the solvent-administered group” value ([3]; Dose 0.3 mg/kg) was 45%, the “suppression rate of IL-1β p17 relative to the solvent-administered group” value ([3]; Dose 1 mg/kg) was 54% and the “suppression rate of IL-1β p17 relative to the solvent-administered group” value ([3]; Dose 3 mg/kg) was 85%.
With Cc1nc(N[C@@H]2CCC[C@H](O)C2)nnc1-c1ccc(C(F)(F)F)cc1O [Example 75, 2-(3-{[(1R,3S)-3-hydroxycyclohexyl]amino}-5-methyl-1,2,4-triazin-6-yl)-5-(trifluoromethyl)phenol] the IC50 ([1]; Homo sapiens, THP-1, 2 h) was 6.5 nM, the phototoxic effect (3T3 NRU phototoxicity) was “no phototoxic effect” and the IC50 [4] was ≥ 10 µM. The IC50 [2] was ≥ 10 µM.
With Cc1nc(N[C@@H]2CCCN(C)C2)nnc1-c1ccc(C(F)(F)F)cc1O [Example 164] the IC50 [1] was 1.5 nM, the phototoxic effect (3T3 NRU phototoxicity) was “no phototoxic effect” and the IC50 [4] was ≥ 10 µM. For the same compound, the IC50 [2] was ≥ 10 µM.
In the case of Cc1nc(N[C@@H]2CCCN(C3CC3)C2)nnc1-c1ccc(C(F)(F)F)cc1O [Example 73, 2-(3-{[(3R)-1-cyclopropylpiperidin-3-yl]amino}-5-methyl-1,2,4-triazin-6-yl)-5-(trifluoromethyl)phenol], the IC50 ([1]; Homo sapiens, THP-1, 2 h) is reported as 1.3 nM and the IC50 [2] is reported as ≥ 10 µM.
With Cc1nc(N[C@@H]2CCCC[C@H]2O)nnc1-c1ccc(OC(F)F)cc1O [Example 131, 5-(difluoromethoxy)-2-(3-{[(1R,2R)-2-hydroxycyclohexyl]amino}-5-methyl-1,2,4-triazin-6-yl)phenol] the IC50 ([1]; Homo sapiens, THP-1, 2 h) was 9.5 nM, the phototoxic effect (3T3 NRU phototoxicity) was “no phototoxic effect” and the IC50 [4] was ≥ 10 µM. For the same compound, the IC50 [2] was ≥ 10 µM.
Cc1nc(N[C@@H]2CCC[C@H](O)C2)nnc1-c1ccc(C(F)(F)F)cc1O [Ex75] was tested, and the “suppression rate of IL-1β p17 relative to the solvent-administered group” value ([3]; Dose 0.3 mg/kg) was 12%, the “suppression rate of IL-1β p17 relative to the solvent-administered group” value ([3]; Dose 1 mg/kg) was 73% and the “suppression rate of IL-1β p17 relative to the solvent-administered group” value ([3]; Dose 3 mg/kg) was 100%.
Cc1nc(N[C@@H]2CCCC[C@H]2N)nnc1-c1ccc(C(F)(F)F)cc1O [Example 132, 2-(3-{[(1R,2R)-2-aminocyclohexyl]amino}-5-methyl-1,2,4-triazin-6-yl)-5-(trifluoromethyl)phenol] was tested, and the IC50 ([1]; Homo sapiens, THP-1, 2 h) was 15 nM, the phototoxic effect (3T3 NRU phototoxicity) was “no phototoxic effect” and the IC50 [4] was ≥ 10 µM. The IC50 [2] was ≥ 10 µM.
For Cc1nc(NC[C@H]2CNCCO2)nnc1-c1ccc(C(F)(F)F)cc1O [Example 141, 2-[5-methyl-3-({[(2R)-morpholin-2-yl]methyl}amino)-1,2,4-triazin-6-yl]-5-(trifluoromethyl)phenol], the IC50 ([1]; Homo sapiens, THP-1, 2 h) was 470 nM and the IC50 [2] was ≥ 10 µM.
With Cc1nc(N[C@@H]2CCCN(C)C2)nnc1-c1ccc(C(F)(F)F)cc1O [Ex164] the “suppression rate of IL-1β p17 relative to the solvent-administered group” value ([3]; Dose 0.3 mg/kg) was 67%, the “suppression rate of IL-1β p17 relative to the solvent-administered group” value ([3]; Dose 1 mg/kg) was 81% and the “suppression rate of IL-1β p17 relative to the solvent-administered group” value ([3]; Dose 3 mg/kg) was 80%.
CC(=O)N1CCC[C@H]1CNc1nnc(-c2ccc(C(F)(F)F)cc2O)c(C)n1 [Example 151, 1-((2S)-2-[({6-[2-hydroxy-4-(trifluoromethyl)phenyl]-5-methyl-1,2,4-triazin-3-yl}amino)methyl]pyrrolidin-1-yl)ethan-1-one] showed an IC50 ([1]; Homo sapiens, THP-1, 2 h) of 35 nM.
For Cc1nc(N[C@@H]2CCNC2)nnc1-c1ccc(C(F)(F)F)cc1O [Example 133], the IC50 ([1]; Homo sapiens, THP-1, 2 h) was 95 nM.
With COc1ccc(-c2nnc(N[C@@H]3CCCC[C@H]3O)nc2C)c(O)c1 [Example 59, 2-(3-{[(1R,2R)-2-hydroxycyclohexyl]amino}-5-methyl-1,2,4-triazin-6-yl)-5-methoxyphenol] the IC50 ([1]; Homo sapiens, THP-1, 2 h) was 14 nM, the phototoxic effect (3T3 NRU phototoxicity) was “no phototoxic effect” and the IC50 [4] was ≥ 10 µM. For the same compound, the IC50 [2] was ≥ 10 µM.
Cc1nc(N[C@@H]2CC[C@H](C(=O)O)C2)nnc1-c1ccc(C(F)(F)F)cc1O [Example 182, (1S,3R)-3-({6-[2-hydroxy-4-(trifluoromethyl)phenyl]-5-methyl-1,2,4-triazin-3-yl}amino)cyclopentane-1-carboxylic acid] showed an IC50 ([1]; Homo sapiens, THP-1, 2 h) of 67 nM.
Work on Cc1nc(N[C@@H]2CCOC[C@@]2(C)O)nnc1-c1ccc(C(F)(F)F)cc1O [Example 80] yielded an IC50 ([1]; Homo sapiens, THP-1, 2 h) of 12 nM.
